This passage reports IC50 results from patent publication US9029359B2, “Heteroaryl Btk inhibitors” (Biogen Idec MA, Inc., priority 2009, dated 2015).

Some results are limits rather than exact numbers.

This experiment has as its target T1, BTK (Homo sapiens, UniProt Q06187).
T1 construct: purchased Upstate 14-552
Description: In vitro BTK kinase assay: BTK-POLYGAT-LS ASSAY. It counts as biochemical. The note with it: ATP 10 uM. On the procedure:
In vitro BTK kinase assay: BTK-POLYGAT-LS ASSAY. The purpose of the BTK in vitro assay is to determine compound potency against BTK through the measurement of IC50. […] A 24 μL aliquot of a ATP/peptide master mix (final concentration; ATP 10 μM, polyGAT 100 nM) in kinase buffer (10 mM Tris-HCl pH 7.5, 10 mM MgCl2, 200 μM Na3VO4, 5 mM DTT, 0.01% Triton X-100, and 0.2 mg/ml Casein) is added to each well. […] The assay is incubated for 30 minutes before being stopped with 28 μL of a 50 mM EDTA solution. […] The plate is covered and incubated for 45 minutes at room temperature. Time resolved fluorescence (TRF) on Molecular Devices M5 (332 nm excitation; 488 nm emission; 518 nm fluorescein emission) is measured.

For orientation: IC50 means the concentration that gives 50% inhibition. Higher therefore signals lower potency.

T1 sequence (Q06187 whole entry): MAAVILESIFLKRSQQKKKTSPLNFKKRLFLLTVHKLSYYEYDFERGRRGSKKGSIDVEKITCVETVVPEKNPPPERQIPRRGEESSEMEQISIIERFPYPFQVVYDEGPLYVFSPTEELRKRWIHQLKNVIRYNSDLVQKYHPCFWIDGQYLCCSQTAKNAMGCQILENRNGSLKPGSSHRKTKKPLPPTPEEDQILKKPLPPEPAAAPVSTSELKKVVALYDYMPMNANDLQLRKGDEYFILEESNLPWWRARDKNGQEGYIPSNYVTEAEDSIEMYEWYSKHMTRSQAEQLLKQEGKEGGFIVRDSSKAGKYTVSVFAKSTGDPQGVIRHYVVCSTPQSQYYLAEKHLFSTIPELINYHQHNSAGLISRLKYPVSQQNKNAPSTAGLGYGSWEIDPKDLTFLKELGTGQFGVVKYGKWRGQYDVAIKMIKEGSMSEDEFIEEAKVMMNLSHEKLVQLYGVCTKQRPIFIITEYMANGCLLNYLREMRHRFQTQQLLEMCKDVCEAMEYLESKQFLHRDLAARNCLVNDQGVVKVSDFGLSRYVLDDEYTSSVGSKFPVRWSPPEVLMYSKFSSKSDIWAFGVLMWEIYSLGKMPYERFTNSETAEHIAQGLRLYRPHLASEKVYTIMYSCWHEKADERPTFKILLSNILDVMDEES

On to `COCCOc1ccc(C(F)(F)F)cc1NCC(=O)N[C@@H]1CCCN(c2ncnc3[nH]ccc23)C1` [Example 455], for which the IC50 fell in the range of 100 to 999 nM. `O=C(CNc1cccc2nccn12)NC1CCCN(c2ncnc3[nH]ccc23)C1` (stereo not shown) [Example 328] returned an IC50 above 10000 nM. Molecule `O=C(CNCC1CCCCC1)NC1CCCN(c2ncnc3[nH]ccc23)C1` (stereo not shown) [Example 357] gave an IC50 above 10000 nM. Take `O=C(CNc1cccc(C(F)(F)F)n1)NC1CCCN(c2ncnc3[nH]ccc23)C1` (stereo not shown) [Example 334]: the IC50 is 1000 to 10000 nM. For `O=C(N[C@@H]1CCCN(c2ncnc3[nH]ccc23)C1)C(Nc1cc(F)cc(Cl)c1)C1COC1` (stereo partly shown) [Example 387] the value was 1000 to 10000 nM. With `CC[C@H](C)[C@@H](Nc1cc(F)cc(Cl)c1)C(=O)N[C@H]1CN(c2ncnc3[nH]ncc23)CC[C@@H]1C` [Example 365], the IC50 is below 100 nM. Take `CC(C)(C)c1ccccc1NCC(=O)N[C@@H]1CCCN(c2ncnc3[nH]ccc23)C1` [Example 416]: the IC50 was 1000 to 10000 nM.

In the case of `C[C@H]1CC[C@@H](NC(=O)[C@H](Nc2cc(F)cc(Cl)c2)C2CC2)CN1c1ncnc2[nH]ncc12` [Example 148, (R)-2-(3-chloro-5-fluorophenylamino)-2-cyclopropyl-N-((3R,6S)-6-methyl-1-(1H-pyrazolo[3,4-d]pyrimidin-4-yl)piperidin-3-yl)acetamide], the IC50 fell in the range of 100 to 999 nM. Consider `O=C(CNc1ccccc1F)NC1CCCN(c2ncnc3[nH]ccc23)C1` (stereo not shown) [Example 23, (N-(1-(7H-pyrrolo[2,3-d]pyrimidin-4-yl)piperidin-3-yl)-2-(2-fluorophenylamino)acetamide)], for which the IC50 was 100 to 999 nM. Take `O=C(CNc1ccccc1Oc1ccccc1)N[C@@H]1CCCN(c2ncnc3[nH]ccc23)C1` [Example 241]: the IC50 is below 100 nM. As for `Cn1nc(-c2ccccc2)cc1NCC(=O)NC1CCCN(c2ncnc3[nH]ccc23)C1` (stereo not shown) [Example 351], the IC50 is above 10000 nM.

The molecule `O=C(CNc1ccc(Cl)cc1F)N[C@@H]1CCCN(c2ncnc3[nH]ccc23)C1` [Example 418] showed an IC50 of 1000 to 10000 nM. The result for `Cc1ccc(F)cc1NCC(=O)N[C@@H]1CCCN(c2ncnc3[nH]ccc23)C1` [Example 273] reads below 100 nM; that for `O=C(CNc1cccc2ncccc12)NC1CCCN(c2ncnc3[nH]ccc23)C1` (stereo not shown) [Example 332], above 10000 nM; that for `O=C(CNc1ccccc1)N[C@H]1CCN(c2ncnc3[nH]ccc23)C1` [Example 359], above 10000 nM.

`O=C(CNC(Cc1ccccc1)c1ccccc1)N[C@@H]1CCCN(c2ncnc3[nH]ccc23)C1` (stereo partly shown) [Example 431] had an IC50 of 1000 to 10000 nM. In the case of `Cc1c(Cl)cccc1NCC(=O)NC1CCCN(c2ncnc3[nH]ccc23)C1` (stereo not shown) [Example 52, (N-(1-(7H-pyrrolo[2,3-d]pyrimidin-4-yl)piperidin-3-yl)-2-(3-chloro-2-methylphenylamino)acetamide)], the IC50 was 100 to 999 nM. The result for `O=C(CNc1cccc(N2CCCCC2)c1)N[C@@H]1CCCN(c2ncnc3[nH]ccc23)C1` [Example 429] reads 1000 to 10000 nM; that for `CCCCOc1ccccc1NCC(=O)N[C@@H]1CCCN(c2ncnc3[nH]ccc23)C1` [Example 199], below 100 nM.

The molecule `C[C@@H](Nc1cc(F)cc(Cl)c1)C(=O)N[C@@H]1CCCN(c2ncnc3[nH]ncc23)C1` [Example 185] had an IC50 below 100 nM. Turning to `O=C(N[C@@H]1CCCN(c2ncnc3[nH]ccc23)C1)[C@@H]1CCc2ccccc2N1` [Example 15, (S)—N—((R)-1-(7H-pyrrolo[2,3-d]pyrimidin-4-yl)piperidin-3-yl)-1,2,3,4-tetrahydroquinoline-2-carboxamide], the IC50 lay in the range of 1000 to 10000 nM.

With `O=C(CNc1ccc(Cl)c(Cl)c1)N[C@@H]1CCCN(c2ncnc3[nH]ccc23)C1` [Example 286], the IC50 lay in the range of 100 to 999 nM. The molecule `CN(C)S(=O)(=O)c1ccccc1NCC(=O)N[C@@H]1CCCN(c2ncnc3[nH]ccc23)C1` [Example 288] returned an IC50 of 100 to 999 nM. In the case of `O=C(CNc1c(F)cc(F)cc1F)N[C@@H]1CCCN(c2ncnc3[nH]ccc23)C1` [Example 438], the IC50 was in the range of 1000 to 10000 nM. Molecule `O=C(CNc1cccc(N2CCOCC2)c1)NC1CCCN(c2ncnc3[nH]ccc23)C1` (stereo not shown) [Example 83, (N-(1-(7H-pyrrolo[2,3-d]pyrimidin-4-yl)piperidin-3-yl)-2-(3-morpholinophenylamino)acetamide)] had an IC50 of 1000 to 10000 nM. The molecule `N#Cc1ccccc1NCC(=O)NC1CCCN(c2ncnc3[nH]ccc23)C1` (stereo not shown) [Example 66, (N-(1-(7H-pyrrolo[2,3-d]pyrimidin-4-yl)piperidin-3-yl)-2-(2-cyanophenylamino)acetamide)] came in with an IC50 of 1000 to 10000 nM. Molecule `CC1CN(S(=O)(=O)c2ccccc2NCC(=O)N[C@@H]2CCCN(c3ncnc4[nH]ncc34)C2)CC(C)O1` (stereo partly shown) [Example 372] gave an IC50 of 100 to 999 nM. As for `CN(C)S(=O)(=O)c1ccccc1NCC(=O)N[C@@H]1CCCN(c2ncnc3[nH]ncc23)C1` [Example 375], the IC50 lay in the range of 100 to 999 nM. The molecule `O=C(CNc1ccc(F)cc1)NC1CCCN(c2ncnc3[nH]ccc23)C1` (stereo not shown) [Example 33, (N-(1-(7H-pyrrolo[2,3-d]pyrimidin-4-yl)piperidin-3-yl)-2-(4-fluorophenylamino)acetamide)] came in with an IC50 of 1000 to 10000 nM. The result for `Nc1cc(N2CCC[C@@H](NC(=O)[C@H](Nc3cc(F)cc(Cl)c3)C3CC3)C2)ncn1` [Example 314] reads 100 to 999 nM; that for `Cc1cc(NCC(=O)NC2CCCN(c3ncnc4[nH]ccc34)C2)on1` (stereo not shown) [Example 350], above 10000 nM; that for `O=C(CNc1ccc(Cl)cc1)NC1CCCN(c2ncnc3[nH]ccc23)C1` (stereo not shown) [Example 22, (N-(1-(7H-pyrrolo[2,3-d]pyrimidin-4-yl)piperidin-3-yl)-2-(4-chlorophenylamino)acetamide)], 100 to 999 nM. The result for `O=C(CNC(=O)Nc1ccccc1)NC1CCCN(c2ncnc3[nH]ccc23)C1` (stereo not shown) [Example 2, (N-(1-(7H-pyrrolo[2,3-d]pyrimidin-4-yl)piperidin-3-yl)-2-(3-phenylureido)acetamide)] reads 100 to 999 nM; that for `Cc1cccc(NCC(=O)N[C@@H]2CCCN(c3ncnc4[nH]ccc34)C2)c1C` [Example 292], 100 to 999 nM. Consider `O=C(CNc1cccc(Cl)c1Cl)NC1CCCN(c2ncnc3[nH]ccc23)C1` (stereo not shown) [Example 27, (N-(1-(7H-pyrrolo[2,3-d]pyrimidin-4-yl)piperidin-3-yl)-2-(2,3-dichlorophenylamino)acetamide)], for which the IC50 lay within 100 to 999 nM. The result for `CN(C1CCCCC1)S(=O)(=O)c1ccccc1NCC(=O)N[C@@H]1CCCN(c2ncnc3[nH]ncc23)C1` [Example 240] reads below 100 nM. The molecule `CNC(=O)c1cccc(NCC(=O)NC2CCCN(c3ncnc4[nH]ccc34)C2)c1` (stereo not shown) [Example 339] gave an IC50 above 10000 nM. On to `CC(C)(C)[C@@H](Nc1cc(F)cc(Cl)c1)C(=O)N[C@@H]1CCCN(c2ncnc3[nH]ncc23)C1` [Example 200], for which the IC50 was below 100 nM. As to `O=C(CNc1cc(F)cc(C(F)(F)F)c1)NC1CCCN(c2ncnc3[nH]ccc23)C1` (stereo not shown) [Example 63, (N-(1-(7H-pyrrolo[2,3-d]pyrimidin-4-yl)piperidin-3-yl)-2-(3-fluoro-5-(trifluoromethyl)phenylamino)acetamide)], the half-inhibitory concentration (IC50) was below 100 nM. `O=C(CNc1ccccc1)NC1CCCN(c2ncnc3[nH]cc(Cl)c23)C1` (stereo not shown) [Example 462] yielded an IC50 above 10000 nM.
